Measured values from patent US12545685B2 (Daiichi Sankyo Company, Limited, priority 2011, dated 2026).

What was measured:
[1] = tested on: human lung cancer-derived cell line NCI-H460 having wild-type p53; assay: Cell growth inhibition assay (MTT); type: cell-based; details: 72 h, NCI-H460 cells, 3 days culture, values given as ranges, read-out: 50% growth inhibition concentration (GI50 value)
Summary of the method: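 NCI-H460 cells (wild-type p53) seeded at 500 cells/well in RPMI1640 with 10% FBS, then treated the next day and grown 3 days at 37 °C. MTT read-out at OD 540 nm (660 nm reference), taken at dosing and at day 3. GI50 derived from T/C (%) dose-response curves.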

[2] = molecular target: T1, Mdm2/p53 binding (GST-Mdm2 / His-p53) (Homo sapiens, UniProt Q00987, L33E); assay: Mdm2/p53 binding assay (HTRF, His-p53 and GST-Mdm2); details: His-p53 (aa 1-132) and GST-Mdm2 (aa 25-108, L33E) 6.25 nM each; 25°C, 1 hour; values given as ranges
T1 construct: Mdm2 partial protein having Mdm2 amino acids at positions 25 to 108
T1 sequence (Q00987 25-108 L33E): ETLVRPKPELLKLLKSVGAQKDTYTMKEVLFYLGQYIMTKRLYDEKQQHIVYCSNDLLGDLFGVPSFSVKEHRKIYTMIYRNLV
Summary of the method: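 His-p53 (aa 1–132) and GST-Mdm2 (aa 25–108, L33E) were prepared at 6.25 nM each in the protein dilution (20 mM HEPES pH 7.4, 150 mM NaCl, 0.1% BSA). Compound in 10% DMSO buffer and XL665 anti-His/Eu anti-GST antibodies (KF buffer) were added, with 1 h at 25 °C. The 665/620 nm TR-FRET ratio gave T/C and a sigmoid-fitted IC50.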

Compound	GI50 [1]	IC50 [2]
CC1(C)CCC2(CC1)N[C@@H](C(=O)N[C@@H]1CC[C@@H](c3n[nH]c(=O)o3)OC1)[C@H](c1ccnc(Cl)c1F)[C@]21C(=O)Nc2cc(Cl)ccc21 [Example 57, (3′R, 4′S,5′R)-6″-chloro-4′-(2-chloro-3-fluoropyridin-4-yl)-4,4-dimethyl-2″-oxo-N-[(3R,6S)-6-(5-oxo-4,5-dihydro-1,3,4-oxadiazol-2-yl)tetrahydro-2H-pyran-3-yl]-1″,2″-dihydrodispiro[cyclohexane-1,2′-pyrrolidine-3′,3″-indole]-5′-carboxamide]	100 to 500 nM	1 to 50 nM
CC1(C)CCC2(CC1)N[C@@H](C(=O)N[C@H]1CC[C@H](C(N)=O)CC1)[C@H](c1ccnc(Cl)c1F)[C@]21C(=O)Nc2cc(Cl)ccc21 [Example 67, (3′R, 4′S,5′R)—N-(trans-4-carbamoylcyclohexyl)-6″-chloro-4′-(2-chloro-3-fluoropyridin-4-yl)-4,4-dimethyl-2′-oxo-1″,2″-dihydrodispiro[cyclohexane-1,2′-pyrrolidine-3′,3″-indole]-5′-carboxamide]	100 to 500 nM	1 to 50 nM
CO[C@@H]1C[C@@H](NC(=O)[C@@H]2NC3(CCC(C)(C)CC3)[C@@]3(C(=O)Nc4cc(Cl)ccc43)[C@H]2c2ccnc(Cl)c2F)CO[C@@H]1CO [Example 69, (3′R, 4′S,5′R)-6″-chloro-4′-(2-chloro-3-fluoropyridin-4-yl)-N-((3R,5R,6R)-6-(hydroxymethyl)-5-methoxytetrahydro-2H-pyran-3-yl)-4,4-dimethyl-2″-oxo-1″,2″-dihydrodispiro[cyclohexane-1,2′-pyrrolidine-3′,3″-indole]-5′-carboxamide]	100 to 500 nM	1 to 50 nM
CCNC(=O)[C@@H]1CC[C@@H](NC(=O)[C@@H]2NC3(CCC(C)(C)CC3)[C@@]3(C(=O)Nc4cc(Cl)ccc43)[C@H]2c2ccnc(Cl)c2F)CO1 [Example 88, (3′R, 4′S,5′R)-6″-chloro-4′-(2-chloro-3-fluoropyridin-4-yl)-N-[(3R,6S)-6-(ethylcarbamoyl)tetrahydro-2H-pyran-3-yl]-4,4-dimethyl-2″-oxo-1″,2″-dihydrodispiro[cyclohexane-1,2′-pyrrolidine-3′,3″-indole]-5′-carboxamide]	100 to 500 nM	50 to 100 nM
CC(C)NC(=O)[C@@H]1CC[C@@H](NC(=O)[C@@H]2NC3(CCC(C)(C)CC3)[C@@]3(C(=O)Nc4cc(Cl)ccc43)[C@H]2c2ccnc(Cl)c2F)CO1 [Example 96, (3′R, 4′S,5′R)-6″-chloro-4′-(2-chloro-3-fluoropyridin-4-yl)-N-[(3R,6S)-6-(isopropylcarbamoyl)tetrahydro-2H-pyran-3-yl]-4,4-dimethyl-2′-oxo-1″,2″-dihydrodispiro[cyclohexane-1,2′-pyrrolidine-3′,3″-indole]-5′-carboxamide]	100 to 500 nM	50 to 100 nM
CC1(C)CCC2(CC1)N[C@@H](C(=O)N[C@@H]1CC[C@@H](CC(N)=O)OC1)[C@H](c1ccnc(Cl)c1F)[C@]21C(=O)Nc2cc(Cl)ccc21 [Example 111, (3′R, 4′S,5′R)—N-[(3R,6S)-6-(2-amino-2-oxoethyl)tetrahydro-2H-pyran-3-yl]-6″-chloro-4′-(2-chloro-3-fluoropyridin-4-yl)-4,4-dimethyl-2″-oxo-1″,20-dihydrodispiro[cyclohexane-1,2′-pyrrolidine-3′,3″-indole]-5′-carboxamide]	100 to 500 nM	1 to 50 nM
CC1(C)CCC2(CC1)N[C@@H](C(=O)N[C@H]1C[C@H](c3nnco3)C1)[C@H](c1ccnc(Cl)c1F)[C@]21C(=O)Nc2cc(Cl)ccc21 [Example 112, (3′R, 4′S, S′R)-6″-chloro-4′-(2-chloro-3-fluoropyridin-4-yl)-4,4-dimethyl-N-[trans-3-(1,3,4-oxadiazol-2-yl)cyclobutyl]-2″-oxo-1″,2″-dihydrodispiro[cyclohexane-1,2′-pyrrolidine-3′,3″-indole]-5-carboxamide]	100 to 500 nM	50 to 100 nM

Results, then the molecule that gave them:

GI50 [1]	IC50 [2]	Compound
100 to 500 nM	1 to 50 nM	CC1(C)CCC2(CC1)N[C@@H](C(=O)N[C@@H]1CC[C@@H](C(=O)NC3CC3)OC1)[C@H](c1ccnc(Cl)c1F)[C@]21C(=O)Nc2cc(Cl)ccc21 [Example 97, (3′R, 4′S,5′R)-6″-chloro-4′-(2-chloro-3-fluoropyridin-4-yl)-N-[(3R,6S)-6-(cyclopropylcarbamoyl)tetrahydro-2H-pyran-3-yl]-4,4-dimethyl-2″-oxo-1″,2″-dihydrodispiro[cyclohexane-1,2′-pyrrolidine-3′,3″-indole]-5′-carboxamide]
< 100 nM	1 to 50 nM	CNC(=O)[C@@H]1CC[C@@H](NC(=O)[C@@H]2NC3(CCC(C)(C)CC3)[C@@]3(C(=O)Nc4cc(Cl)ccc43)[C@H]2c2ccnc(Cl)c2F)CO1 [Example 99, (3′R, 4′S,5′R)-6″-chloro-4′-(2-chloro-3-fluoropyridin-4-yl)-N-[(3R,6S)-6-(methylcarbamoyl)tetrahydro-2H-pyran-3-yl]-4,4-dimethyl-2″-oxo-1″,2″-dihydrodispiro[cyclohexane-1,2′-pyrrolidine-3′,3″-indole]-5′-carboxamide]
< 100 nM	1 to 50 nM	CN(C)C(=O)[C@@H]1CC[C@@H](NC(=O)[C@@H]2NC3(CCC(C)(C)CC3)[C@@]3(C(=O)Nc4cc(Cl)ccc43)[C@H]2c2ccnc(Cl)c2F)CO1 [Example 100, (3′R, 4′S,5′R)-6″-chloro-4′-(2-chloro-3-fluoropyridin-4-yl)-N-[(3R,6S)-6-(dimethylcarbamoyl)tetrahydro-2H-pyran-3-yl]-4,4-dimethyl-2″-oxo-1″,2″-dihydrodispiro[cyclohexane-1,2′-pyrrolidine-3′,3′″-indole]-5′-carboxamide]
100 to 500 nM	1 to 50 nM	CC1(C)CCC2(CC1)N[C@@H](C(=O)N[C@@H]1CC[C@@H](C(=O)N3CC(O)C3)OC1)[C@H](c1ccnc(Cl)c1F)[C@]21C(=O)Nc2cc(Cl)ccc21 [Example 107, (3′R, 4′S,5′R)-6″-chloro-4′-(2-chloro-3-fluoropyridin-4-yl)-N-{(3R,6S)-6-[(3-hydroxyazetidin-1-yl)carbonyl]tetrahydro-2H-pyran-3-yl}-4,4-dimethyl-2″-oxo-1″,2″-dihydrodispiro[cyclohexane-1,2′-pyrrolidine-3′,3″-indole]-5′-carboxamide]
100 to 500 nM	1 to 50 nM	CC1(C)CCC2(CC1)N[C@@H](C(=O)N[C@@H]1CC[C@@H](C(=O)NC3CCOCC3)OC1)[C@H](c1ccnc(Cl)c1F)[C@]21C(=O)Nc2cc(Cl)ccc21 [Example 109, (3′R, 4′S,5′R)-6″-chloro-4′-(2-chloro-3-fluoropyridin-4-yl)-4,4-dimethyl-2″-Oxo-N-[(3R,6S)-6-(tetrahydro-2H-pyran-4-ylcarbamoyl)tetrahydro-2H-pyran-3-yl]-1″,2″-dihydrodispiro[cyclohexane-1,2′-pyrrolidine-3′,3″-indole]-5′-carboxamide]
< 100 nM	1 to 50 nM	CC1(C)CCC2(CC1)N[C@@H](C(=O)N[C@@H]1CC[C@@H](C(=O)N3CCOCC3)OC1)[C@H](c1ccnc(Cl)c1F)[C@]21C(=O)Nc2cc(Cl)ccc21 [Example 110, (3′R, 4′S,5′R)-6″-chloro-4′-(2-chloro-3-fluoropyridin-4-yl)-4,4-dimethyl-N-[(3R,6S)-6-(morpholin-4-ylcarbonyl)tetrahydro-2H-pyran-3-yl]-2″-oxo-1″,2″-dihydrodispiro[cyclohexane-1,2′-pyrrolidine-3′,3″-indole]-5′-carboxamide]
